Data from article PMC12067093, “Discovery and optimisation of a covalent ligand for TRIM25 and its application to targeted protein ubiquitination” (Chemical Science, 2025).

Tests used:
[1] = biological target: T1, TRIM25 (peptide FTYC^498SQVLGLHC^506YK) (Homo sapiens, UniProt Q14258); test: IA-DTB competitive chemoproteomics in live THP-1 cells; assay type: cell-based, 9606; conditions: 4 h at 37 °C, compound tested at 50 μM and 10 μM, significant if FC ≤ 0.25, p-value ≤ 0.01
T1 construct: endogenous in cells; host or cells: THP-1

[2] = biological target: T2, TRIM25 PRYSPRY and BRD4 BD2 ternary complex (Homo sapiens, UniProt O60885+Q14258); test: Recombinant protein ternary complex pull-down; assay type: binding; conditions: TRIM25 PRYSPRY pre-labelled with compound 50 μM overnight, intermediate wash step, then BRD4 BD2
T2 construct: made in house; host or cells: Sf9 insect cells (TRIM25 PRYSPRY)
Experimental: 3 25 mM HEPES, 50 mM NaCl for 20 h at 4 °C, before purification by gel filtration into
4 buffer 20 mM Bis-Tris pH 7.5, 150 mM NaCl, 0.5 mM TCEP. Commercially available
5 sitting drop crystallization screens were dispensed at 20 °C using an automated
6 Mosquito machine (TTP Labtech). Crystals grew from a pre-labelled protein-ligand
8 drops containing 100 nL protein-ligand complex and 100 nL reservoir solution. For X-
9 ray data acquisition, crystals were cryoprotected with perfluoropolyether cryo oil
10 (Hampton Research, HR2-814). Diffraction data were collected on beamline I04 (λ =
11 0.9537 Å) at Diamond Light Source (Oxford, UK), processed using DIALS17 and
12 merged and scaled using AIMLESS.18 The structure of the complex was solved by
13 molecular replacement using the available TRIM25 PRYSPRY structure (6FLM)10 as
15 in Coot20 and refined using Refmac21 and Phenix.19 Coordinates and structure factors
16 are deposited in the Protein Data Bank under accession code 9I0T. Further details on
17 data collection and refinement statistics are summarised in Supplementary Table 1.
20 Recombinant TRIM25 PRYSPRY (100 µM) in 25 mM HEPES pH 7.5, 50 mM NaCl,
23 acquired with Topspin (Bruker) at timepoint 0 (immediately after mixing protein with
24 compound), and after 4 h incubation.
26 Recombinant protein ternary complex pull-down assays
27 His10-TRIM25 or His6-TRIM25 PRYSPRY (4 µM) was pre-labelled with either DMSO
28 (1%) or heterobifunctional compounds (HB1, HB2 or HB3, 50 µM, 1% DMSO) and
29 captured on His Mag Sepharose Ni magnetic beads, and washed once to remove
30 excess unreacted compound, as described above.
32 Substrate (BRD4 or BRD4 BD2) (4 µM, assuming 1:1 with on-bead captured TRIM25-
33 compound complex) was added to the on-bead captured TRIM25-compound complex,
1 and incubated in capture buffer 50 mM Tris pH 7.5, 150 mM NaCl, 5 mM MgCl2, 20 mM
2 imidazole, 0.5 mM TCEP, 0.5% IGEPAL for 2 h at 4 °C, with rotation. Beads were
3 washed three times with 500 µL capture buffer, and mixed with 12 µL NuPAGE LDS
4 sample buffer (1x, Invitrogen, NP0007). Samples were analysed by SDS-PAGE and […]

T2 sequence (Q14258 435-630, other chains not shown): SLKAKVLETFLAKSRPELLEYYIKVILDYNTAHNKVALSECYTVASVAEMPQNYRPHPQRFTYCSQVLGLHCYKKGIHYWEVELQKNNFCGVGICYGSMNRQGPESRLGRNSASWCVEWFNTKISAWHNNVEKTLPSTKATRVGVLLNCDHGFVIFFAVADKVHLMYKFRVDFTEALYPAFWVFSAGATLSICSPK
T1 sequence (Q14258 whole entry): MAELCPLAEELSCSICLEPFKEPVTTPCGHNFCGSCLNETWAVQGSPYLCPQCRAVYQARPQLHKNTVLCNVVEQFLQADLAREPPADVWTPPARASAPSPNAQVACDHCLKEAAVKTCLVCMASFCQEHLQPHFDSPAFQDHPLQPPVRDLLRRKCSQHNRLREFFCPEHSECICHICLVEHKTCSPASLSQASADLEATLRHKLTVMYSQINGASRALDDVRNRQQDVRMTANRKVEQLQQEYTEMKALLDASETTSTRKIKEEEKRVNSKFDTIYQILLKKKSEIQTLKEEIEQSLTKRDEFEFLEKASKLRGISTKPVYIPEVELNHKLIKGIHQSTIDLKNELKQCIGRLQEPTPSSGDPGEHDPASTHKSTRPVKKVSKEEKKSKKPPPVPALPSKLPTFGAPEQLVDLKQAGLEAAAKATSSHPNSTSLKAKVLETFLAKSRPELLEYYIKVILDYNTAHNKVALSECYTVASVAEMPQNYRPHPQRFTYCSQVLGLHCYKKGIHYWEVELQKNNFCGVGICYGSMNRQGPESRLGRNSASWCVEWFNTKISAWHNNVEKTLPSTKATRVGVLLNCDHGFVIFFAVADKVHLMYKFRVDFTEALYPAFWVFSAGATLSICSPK

in vitro ternary complex formation (pull-down) [2] | SMILES | TRIM25 engagement in cells [1]
Ternary complex formation was observed | Cc1cc(C(=O)N2CCCN(C(=O)CCl)CC2)ccc1-c1cccc(C(=O)NCCOCCOCCNC(=O)C[C@@H]2N=C(c3ccc(Cl)cc3)c3c(sc(C)c3C)-n3c(C)nnc32)c1 [HB1] | 
Ternary complex formation was observed | Cc1cc(C(=O)N2CCCN(C(=O)CCl)CC2)ccc1-c1cccc(C(=O)NCCOCCOCCOCCNC(=O)C[C@@H]2N=C(c3ccc(Cl)cc3)c3c(sc(C)c3C)-n3c(C)nnc32)c1 [HB2] | 
Ternary complex formation was observed | Cc1cc(C(=O)N2CCCN(C(=O)CCl)CC2)ccc1-c1cccc(C(=O)NCCOCCOCCOCCOCCNC(=O)C[C@@H]2N=C(c3ccc(Cl)cc3)c3c(sc(C)c3C)-n3c(C)nnc32)c1 [HB3] | 

More lines, now with the values behind:

SMILES | in vitro ternary complex formation (pull-down) [2] | TRIM25 engagement in cells [1]
Cc1cc(C(=O)N2CCCN(C(=O)CCl)CC2)ccc1-c1ccccc1 [Compound 10] |  | engaged TRIM25 in cells at the PRYSPRY domain at 50 μM
CC1Cc2ccccc2N1C(=O)C1CCCN(C(=O)CCl)C1 (centres unmarked) [Compound 11] |  | not observed to engage TRIM25
